Assay results published in patent publication US4386077A (Made Italiana s.r.l, priority 1981, dated 1983).

What was measured:
[1] = Serum kinetics and absolute bioavailability of ^14 C-labelled CDP-choline and "ASONIC" after i.v. and oral administration in Cynomolgus monkeys; type: in vivo, Cynomolgus monkey; conditions: for Plasmatic concentration: average and S.D. of 2 monkeys, 400 mg/kg per os; for Absolute bioavailability F: oral
Description: From the end of the curves serum concentration/time, it was possible to calculate the constant of the apparent elimination speed from the organism as well as the relative half-life. These values were utilized in calculating the AUC T30 hours →T.infin. for the total of the curves concentration/time in the same animal. The AUC To →T30 hrs was calculated by means of the trapezium methods. […] For each dosage, a randomized cross-over procedure was used. Seriated blood samples were collected until 30 hours after each administration. From the single curves concentration/time it was possible to calculate the AUC To →T30 hrs. After each administration, including the intravenous one, urine was collected at the following time intervals: 0-24 hours, 24-48 hours and 48-72 hours.

[2] = oral, compound as such; cited from earlier work

Q: Which Plasmatic concentration ([1]; 6 hr) does the source give for `C[N+](C)(C)CCOP(=O)(O)OP(=O)([O-])OC[C@H]1O[C@@H](n2ccc(N)nc2=O)[C@H](O)[C@@H]1O` [CDP-choline, cytidine diphosphocholine] here?
A: The Plasmatic concentration was 1496 ± 134 DPM/ml serum.

Q: What about the Plasmatic concentration ([1]; 7 hr) of the same molecule?
A: The Plasmatic concentration was 2636 ± 107 DPM/ml serum.

Q: What about the Plasmatic concentration ([1]; 8 hr) of the same molecule?
A: Its Plasmatic concentration is 4163 ± 101 DPM/ml serum.

Q: What about the Plasmatic concentration ([1]; 9 hr) of the same molecule?
A: The Plasmatic concentration was 4813 ± 513 DPM/ml serum.

Q: And the Plasmatic concentration ([1]; 24 hr)?
A: Its Plasmatic concentration is 536 ± 122 DPM/ml serum.

Q: What about the Plasmatic concentration ([1]; 30 hr) of the same molecule?
A: The Plasmatic concentration was 470 ± 98 DPM/ml serum.

Q: What about the Serum concentration ([1]; monkey no. 1, 25 mg/kg i.v., 5') of the same molecule?
A: Its Serum concentration is 8708 DPM/ml.

Q: What about the Serum concentration ([1]; monkey no. 1, 25 mg/kg i.v., 15') of the same molecule?
A: The Serum concentration was 3169 DPM/ml.

Q: And the Serum concentration ([1]; monkey no. 1, 25 mg/kg i.v., 30')?
A: The Serum concentration was 2226 DPM/ml.

Q: What about the Serum concentration ([1]; monkey no. 1, 25 mg/kg i.v., 60') of the same molecule?
A: Its Serum concentration is 1629 DPM/ml.

Q: And the Serum concentration ([1]; monkey no. 1, 25 mg/kg i.v., 2 hr)?
A: The Serum concentration was 2165 DPM/ml.

Q: What about the Serum concentration ([1]; monkey no. 1, 25 mg/kg i.v., 4 hr) of the same molecule?
A: The Serum concentration was 2760 DPM/ml.

Q: What about the Serum concentration ([1]; monkey no. 1, 25 mg/kg i.v., 7 hr) of the same molecule?
A: Its Serum concentration is 3120 DPM/ml.

Q: What about the Serum concentration ([1]; monkey no. 1, 25 mg/kg i.v., 24 hr) of the same molecule?
A: Its Serum concentration is 1812 DPM/ml.

Q: And the Serum concentration ([1]; monkey no. 1, 25 mg/kg i.v., 30 hr)?
A: The Serum concentration was 1749 DPM/ml.

Q: What about the Serum concentration ([1]; monkey no. 1, 200 mg/kg per os, 30') of the same molecule?
A: Its Serum concentration is 45 DPM/ml.

Q: And the Serum concentration ([1]; monkey no. 1, 200 mg/kg per os, 45')?
A: The Serum concentration was 53 DPM/ml.

Q: What about the Serum concentration ([1]; monkey no. 1, 200 mg/kg per os, 60') of the same molecule?
A: Its Serum concentration is 88 DPM/ml.

Q: And the Serum concentration ([1]; monkey no. 1, 200 mg/kg per os, 7 hr)?
A: Its Serum concentration is 852 DPM/ml.

Q: And the Serum concentration ([1]; monkey no. 1, 200 mg/kg per os, 9 hr)?
A: Its Serum concentration is 743 DPM/ml.

Q: And the Serum concentration ([1]; monkey no. 1, 200 mg/kg per os, 24 hr)?
A: Its Serum concentration is 339 DPM/ml.

Q: And the Serum concentration ([1]; monkey no. 1, 400 mg/kg per os, 30')?
A: Its Serum concentration is 35 DPM/ml.

Q: What about the Serum concentration ([1]; monkey no. 1, 400 mg/kg per os, 60') of the same molecule?
A: Its Serum concentration is 52 DPM/ml.

Q: And the Serum concentration ([1]; monkey no. 1, 400 mg/kg per os, 90')?
A: Its Serum concentration is 29 DPM/ml.

Q: And the Serum concentration ([1]; monkey no. 1, 400 mg/kg per os, 2 hr)?
A: Its Serum concentration is 75 DPM/ml.

Q: And the Serum concentration ([1]; monkey no. 1, 400 mg/kg per os, 3 hr)?
A: Its Serum concentration is 187 DPM/ml.

Q: And the Serum concentration ([1]; monkey no. 1, 400 mg/kg per os, 4 hr)?
A: The Serum concentration was 401 DPM/ml.

Q: And the Serum concentration ([1]; monkey no. 1, 400 mg/kg per os, 6 hr)?
A: Its Serum concentration is 1590 DPM/ml.

Q: What about the Serum concentration ([1]; monkey no. 1, 400 mg/kg per os, 7 hr) of the same molecule?
A: Its Serum concentration is 2712 DPM/ml.

Q: What about the Serum concentration ([1]; monkey no. 1, 400 mg/kg per os, 8 hr) of the same molecule?
A: Its Serum concentration is 4092 DPM/ml.

Q: And the Serum concentration ([1]; monkey no. 1, 400 mg/kg per os, 9 hr)?
A: Its Serum concentration is 5175 DPM/ml.

Q: What about the Serum concentration ([1]; monkey no. 1, 400 mg/kg per os, 24 hr) of the same molecule?
A: Its Serum concentration is 622 DPM/ml.

Q: And the Serum concentration ([1]; monkey no. 1, 400 mg/kg per os, 30 hr)?
A: The Serum concentration was 540 DPM/ml.

Q: And the Serum concentration ([1]; monkey no. 2, 25 mg/kg i.v., 5')?
A: The Serum concentration was 12414 DPM/ml.

Q: And the Serum concentration ([1]; monkey no. 2, 25 mg/kg i.v., 15')?
A: The Serum concentration was 5007 DPM/ml.

Q: And the Serum concentration ([1]; monkey no. 2, 25 mg/kg i.v., 30')?
A: Its Serum concentration is 3467 DPM/ml.

Q: And the Serum concentration ([1]; monkey no. 2, 25 mg/kg i.v., 60')?
A: Its Serum concentration is 2625 DPM/ml.

Q: And the Serum concentration ([1]; monkey no. 2, 25 mg/kg i.v., 2 hr)?
A: The Serum concentration was 2630 DPM/ml.

Q: And the Serum concentration ([1]; monkey no. 2, 25 mg/kg i.v., 4 hr)?
A: Its Serum concentration is 3369 DPM/ml.

Q: And the Serum concentration ([1]; monkey no. 2, 25 mg/kg i.v., 7 hr)?
A: The Serum concentration was 4013 DPM/ml.

Q: What about the Serum concentration ([1]; monkey no. 2, 25 mg/kg i.v., 24 hr) of the same molecule?
A: Its Serum concentration is 2258 DPM/ml.

Q: And the Serum concentration ([1]; monkey no. 2, 25 mg/kg i.v., 30 hr)?
A: Its Serum concentration is 2145 DPM/ml.

Q: And the Serum concentration ([1]; monkey no. 2, 200 mg/kg per os, 15')?
A: Its Serum concentration is 61 DPM/ml.

Q: And the Serum concentration ([1]; monkey no. 2, 200 mg/kg per os, 45')?
A: Its Serum concentration is 59 DPM/ml.

Q: What about the Serum concentration ([1]; monkey no. 2, 200 mg/kg per os, 60') of the same molecule?
A: Its Serum concentration is 94 DPM/ml.

Q: And the Serum concentration ([1]; monkey no. 2, 200 mg/kg per os, 7 hr)?
A: Its Serum concentration is 696 DPM/ml.

Q: And the Serum concentration ([1]; monkey no. 2, 200 mg/kg per os, 9 hr)?
A: Its Serum concentration is 595 DPM/ml.

Q: What about the Serum concentration ([1]; monkey no. 2, 200 mg/kg per os, 24 hr) of the same molecule?
A: Its Serum concentration is 417 DPM/ml.

Q: And the Serum concentration ([1]; monkey no. 2, 200 mg/kg per os, 30 hr)?
A: The Serum concentration was 303 DPM/ml.

Q: And the Serum concentration ([1]; monkey no. 2, 400 mg/kg per os, 60')?
A: Its Serum concentration is 69 DPM/ml.

Q: And the Serum concentration ([1]; monkey no. 2, 400 mg/kg per os, 90')?
A: The Serum concentration was 52 DPM/ml.

Q: What about the Serum concentration ([1]; monkey no. 2, 400 mg/kg per os, 2 hr) of the same molecule?
A: Its Serum concentration is 81 DPM/ml.

Q: And the Serum concentration ([1]; monkey no. 2, 400 mg/kg per os, 3 hr)?
A: Its Serum concentration is 174 DPM/ml.

Q: What about the Serum concentration ([1]; monkey no. 2, 400 mg/kg per os, 4 hr) of the same molecule?
A: Its Serum concentration is 495 DPM/ml.

Q: What about the Serum concentration ([1]; monkey no. 2, 400 mg/kg per os, 6 hr) of the same molecule?
A: The Serum concentration was 1.401 DPM/ml.

Q: And the Serum concentration ([1]; monkey no. 2, 400 mg/kg per os, 7 hr)?
A: The Serum concentration was 2.560 DPM/ml.

Q: What about the Serum concentration ([1]; monkey no. 2, 400 mg/kg per os, 8 hr) of the same molecule?
A: The Serum concentration was 4.235 DPM/ml.

Q: And the Serum concentration ([1]; monkey no. 2, 400 mg/kg per os, 9 hr)?
A: The Serum concentration was 4.450 DPM/ml.

Q: And the Serum concentration ([1]; monkey no. 2, 400 mg/kg per os, 24 hr)?
A: Its Serum concentration is 449 DPM/ml.

Q: And the Serum concentration ([1]; monkey no. 2, 400 mg/kg per os, 30 hr)?
A: The Serum concentration was 401 DPM/ml.

Q: What about the “Absolute bioavailability” value ([1]; monkeys, oral control dosages) of the same molecule?
A: Its value is “much lower”.

Q: What about the “Absolute bioavailability F” value ([1]; monkeys, 200 mg/kg as CDP-choline) of the same molecule?
A: Its value is 0.2143.

Q: And the “Absolute bioavailability F” value ([1]; monkeys, 400 mg/kg as CDP-choline)?
A: The value was 0.6174.

Q: And the Absorbability [2]?
A: Its Absorbability is “poor absorbability”.
